Data: PMC8544286, “Screening and Identification of a Novel Anti-tuberculosis Compound That Targets Deoxyuridine 5′-Triphosphate Nucleotidohydrolase” (Frontiers in Microbiology, 2021)
Converted amounts (≈) assume the structure as drawn. Like-named read-outs stand apart in the source and are kept apart here.

Columns and labels:
[1] = system: multidrug-resistant strain MDR-FJ05120; experiment: microbe, parasite or virus in culture; type: cell-based; conditions: Mycobacterium tuberculosis, 168 h
[2] = system: multidrug-resistant strain MDR-FJ05189; experiment: microbe, parasite or virus in culture; type: cell-based; conditions: Mycobacterium tuberculosis, 168 h
[3] = system: extensive drug-resistant strain XDR-XZ06008; experiment: microbe, parasite or virus in culture; type: cell-based; conditions: Mycobacterium tuberculosis, 168 h
[4] = system: extensive drug-resistant strain XDR-FJ05195; experiment: microbe, parasite or virus in culture; type: cell-based; conditions: Mycobacterium tuberculosis, 168 h
[5] = target: Mt-P79A-dUTPase (Mycobacterium tuberculosis, UniProt P9WNS5, P79A); type: binding
[6] = […], MABA, 7 days at 37°C, read-out: MIC

Compound | MIC [1, 6] | MIC [2, 6] | MIC [3, 6] | MIC [4, 6] | MIC [1] | MIC [2] | MIC [3] | MIC [4] | SPR binding to Mt-P79A-dUTPase [5]
NNC(=O)c1ccncc1 [Isoniazid] | 4 µg/mL (≈ 29.2 µM) | < 0.5 µg/mL | > 256 µg/mL | > 256 µg/mL | – | – | – | – | –
CO[C@H]1/C=C/O[C@@]2(C)Oc3c(C)c(O)c4c(O)c(c(/C=N/N5CCN(C)CC5)c(O)c4c3C2=O)NC(=O)/C(C)=C\C=C\[C@H](C)[C@H](O)[C@@H](C)[C@@H](O)[C@@H](C)[C@H](OC(C)=O)[C@@H]1C [Rifampicin] | – | – | – | – | > 256 µg/mL | > 256 µg/mL | > 256 µg/mL | 4 µg/mL (≈ 4.86 µM) | –
C=CCn1c(/C=C/c2ccccc2)nc2ccccc21 [F0414] | 8 µg/mL (≈ 30.7 µM) | 2 µg/mL (≈ 7.68 µM) | 8 µg/mL (≈ 30.7 µM) | 2 µg/mL (≈ 7.68 µM) | – | – | – | – | much weaker affinity
